Test results reported in EP0364819A2, “LHRH analogs” (The Administrators of The Tulane Educational Fund, priority 1988, dated 1990).

How the values were obtained:
[1] = target: T1, membrane receptors of rat pituitary (Rattus norvegicus, UniProt P30969); assay: Receptor binding to rat pituitary membranes with 125I-labeled [D-Trp6]LHRH; settings: Table 2, antagonistic analogues; high affinity binding sites; pituitary of male rats; ¹²⁵l-labeled [D-Trp⁶]LHRH
T1 construct: membrane receptors of rat pituitary; from tissue; host or cells: rat pituitary membranes
T1 sequence (P30969 1-327): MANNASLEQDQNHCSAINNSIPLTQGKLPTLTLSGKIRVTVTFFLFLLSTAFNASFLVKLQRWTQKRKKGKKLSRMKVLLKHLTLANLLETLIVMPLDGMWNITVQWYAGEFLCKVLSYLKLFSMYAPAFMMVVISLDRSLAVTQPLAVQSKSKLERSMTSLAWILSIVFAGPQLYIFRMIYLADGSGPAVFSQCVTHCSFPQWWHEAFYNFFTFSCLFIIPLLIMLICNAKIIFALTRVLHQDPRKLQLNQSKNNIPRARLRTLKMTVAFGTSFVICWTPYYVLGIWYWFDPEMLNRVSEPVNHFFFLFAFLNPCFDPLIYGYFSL
Description: (§1) This is determined by using labelled LHRH and [D-Trp⁶]LHRH. The assay is carried out similarly to that described by T. Kadar et al., Proc. Natl. Acad. Sci. USA, 85, 890-894 (1988).
(§2) Table 2 presents the antiovulatory activity of the claimed compounds having LHRH-inhibiting properties. The inhibitory action was determined in vivo, in 4-day cycling rats as described [A. Corbin and C. W. Beattie, Endocr. Res. Commun., 2, 1-23 (1975)]. Affinities of the claimed compounds to membrane receptors of rat pituitary and human breast cancer cells are also given in Tables 1 and 2 as determined by using [[…],D-Trp⁶]LHRH.

[2] = target: T2, membrane receptors of human breast cancer cells (Homo sapiens, UniProt P30968); assay: Receptor binding to human breast cancer cell membranes with 125I-labeled [D-Trp6]LHRH; settings: Table 2, antagonistic analogues, high affinity binding sites, ¹²⁵l-labeled [D-Trp⁶]LHRH
T2 construct: human prostate and breast cancer cell membranes; endogenous in cells
T2 sequence (P30968 1-328): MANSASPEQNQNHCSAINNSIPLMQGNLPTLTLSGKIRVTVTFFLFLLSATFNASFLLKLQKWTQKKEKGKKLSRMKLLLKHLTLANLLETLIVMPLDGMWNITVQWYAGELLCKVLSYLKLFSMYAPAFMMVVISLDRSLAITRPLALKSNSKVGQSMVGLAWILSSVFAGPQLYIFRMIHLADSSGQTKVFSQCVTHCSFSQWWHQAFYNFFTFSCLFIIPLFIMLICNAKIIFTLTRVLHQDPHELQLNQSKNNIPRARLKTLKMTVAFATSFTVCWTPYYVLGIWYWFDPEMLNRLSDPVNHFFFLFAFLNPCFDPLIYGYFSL
Description: (§3) (c)Affinity for peptides to human prostate and breast cancer cell membranes.
as §1, §2

4-day cycling rats = assay: In vivo antiovulatory activity in 4-day cycling rats; settings: 4-day cyclic rats
Description: This activity of the peptides is determined in 4-day-cycling rats as described [A. Corbin and C. W.Beattie, Endocr. Res. Commun. 2, 1-23(1975)].
as §2

[3] = prior art analogues with Chlorambucil as cytotoxic moiety; cited from earlier work
[4] = tested on: membrane receptors of human prostate cancer; assay: Receptor binding to human prostate cancer membranes with 125I-labeled [D-Trp6]LHRH; settings: first receptor class (high affinity binding sites)
Description: as §3, §1

[5] = tested on: membrane receptors of Dunning tumor; assay: Receptor binding to Dunning tumor membranes with 125I-labeled [D-Trp6]LHRH; settings: first receptor class (high affinity binding sites); rat Dunning tumor
Description: as §1

Molecule	Binding affinity, Ka1, for membrane receptors of pituitary [1] [nM-¹]	Binding affinity, Ka1, for membrane receptors of cancer cells [2] [nM-¹]	Hormonal activity* %Blockade of ovulation (4-day cycling rats; Dose 3 µg/rat) [%]	Hormonal activity* %Blockade of ovulation (4-day cycling rats; Dose 10 µg/rat) [%]	activities (LHRH agonist or antagonist) [3]	Human prostate cancer* Ka1 [4] [nM⁻¹]	Dunning tumor* Ka1 [5] [nM⁻¹]
Ac-D-Nal(2)-D-Phe(4Cl)-D-Trp-Ser-Arg-D-Lys[(Cu⁺⁺)(SAL)₂(DL-A₂pr)]-Leu-Arg-Pro-D-Ala-NH₂ [XII]	9.183	4.951	20	–	–	–	–
Ac-D-Nal(2)-D-Phe(4Cl)-D-Trp-Ser-Arg-D-Lys[(Cu⁺⁺) (POL)₂(DL-A₂pr)]-Leu-Arg-Pro-D-Ala-NH₂ [Example XXIII]	7.622	3.408	–	40	–	–	–
Ac-D-Nal(2)-D-Phe(4Cl)-D-Trp-Ser-Arg-D-Lys[(Cu⁺⁺)(POLP)₂(DL-A₂pr)]-Leu-Arg-Pro-D-Ala-NH₂ [Example XXII]	2.901	1.337	–	60	–	–	–
Ac-D-Nal(2)-D-Phe(4Cl)-D-Pal(3)-Ser-Arg-D-Lys[(Cu⁺⁺)(POL)₂(DL-A₂pr)]-Leu-Arg-Pro-D-Ala-NH₂ [XXIV]	5.483	2.628	50	–	–	–	–
[D-Lys(Chlorambucil)⁶] LHRH	–	–	–	–	moderate activities	–	–
CC(C)C[C@H](NC(=O)[C@@H](Cc1c[nH]c2ccccc12)NC(=O)[C@H](Cc1ccc(O)cc1)NC(=O)[C@H](CO)NC(=O)[C@H](Cc1c[nH]c2ccccc12)NC(=O)[C@H](Cc1c[nH]cn1)NC(=O)[C@@H]1CCC(=O)N1)C(=O)N[C@@H](CCCNC(=N)N)C(=O)N1CCC[C@H]1C(=O)NCC(N)=O [[D-Trp⁶]-LHRH, reference compound]	–	–	–	–	–	0.04	1.87
Ac-D-Nal(2)-D-Phe(4Cl)-D-Pal(3)-Ser-Arg-D-Lys[(Cu⁺⁺)(POLP)₂(DL-A₂pr)]-Leu-Arg-Pro-D-Ala-NH₂ [Example XX]	5.250	2.436	80	–	–	–	–
[Chlorambucil-D-Phe¹,D-Phe²,D-Trp³ʼ⁶]LHRH	–	–	–	–	practically inactive	–	–
Ac-D-Nal(2)-D-Phe(4Cl)-D-Trp-Ser-Arg-D-Lys[(Ni⁺⁺)(SAL)₂(DL-A₂pr)]-Leu-Arg-Pro-D-Ala-NH₂ [Example XV]	8.676	4.418	20	–	–	–	–
Ac-D-Nal(2)-D-Phe(4Cl)-D-Pal(3)-Ser-Arg-D-Mel-Leu-Arg-Pro-D-Ala-NH₂ [Example II]	7.190	3.967	–	–	–	0.7	1.68
[Chlorambucil-D-Leu²,D-Leu³,D-Ala⁶]LHRH (2-10)	–	–	–	–	moderate activities	–	–
